The nature of assay [1]: Inhibition of Aspergillus niger amyloglucosidase using p-nitrophenyl glycoside as substrate by spectrometric method.
A short description of assay [2]: Inhibition of Aspergillus niger amyloglucosidase.
The target of assay [3] is T1, Alpha-mannosidase (Canavalia ensiformis) (UniProt C0HJB3).
T1 sequence (whole entry): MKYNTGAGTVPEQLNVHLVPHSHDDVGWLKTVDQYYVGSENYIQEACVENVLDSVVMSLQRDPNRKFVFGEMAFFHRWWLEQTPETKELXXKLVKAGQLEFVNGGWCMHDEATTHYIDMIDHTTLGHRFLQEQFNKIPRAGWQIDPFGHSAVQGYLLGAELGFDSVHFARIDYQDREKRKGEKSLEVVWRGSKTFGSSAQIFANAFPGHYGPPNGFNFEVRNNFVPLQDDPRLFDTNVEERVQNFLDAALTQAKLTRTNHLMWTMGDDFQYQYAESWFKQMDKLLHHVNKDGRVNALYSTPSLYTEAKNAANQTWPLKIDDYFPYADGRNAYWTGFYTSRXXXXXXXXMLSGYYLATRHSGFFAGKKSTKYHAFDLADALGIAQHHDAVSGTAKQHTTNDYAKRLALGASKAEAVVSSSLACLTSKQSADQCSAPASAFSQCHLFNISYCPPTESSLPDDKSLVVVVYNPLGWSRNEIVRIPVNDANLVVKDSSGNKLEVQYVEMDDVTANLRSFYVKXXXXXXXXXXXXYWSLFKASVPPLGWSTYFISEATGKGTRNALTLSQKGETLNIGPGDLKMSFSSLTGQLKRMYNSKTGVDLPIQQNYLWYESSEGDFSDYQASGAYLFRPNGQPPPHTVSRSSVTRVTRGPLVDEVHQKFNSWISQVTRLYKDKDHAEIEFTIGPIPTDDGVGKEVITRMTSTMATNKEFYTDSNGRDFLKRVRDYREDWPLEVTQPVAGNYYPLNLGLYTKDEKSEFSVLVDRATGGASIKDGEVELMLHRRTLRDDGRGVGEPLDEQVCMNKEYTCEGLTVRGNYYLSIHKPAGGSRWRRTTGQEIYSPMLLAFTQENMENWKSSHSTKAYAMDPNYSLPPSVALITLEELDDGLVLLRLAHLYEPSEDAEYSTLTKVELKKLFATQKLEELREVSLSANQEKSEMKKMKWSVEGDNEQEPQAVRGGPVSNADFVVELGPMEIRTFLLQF
As to the kind of experiment: Inhibition of jack bean alpha-mannosidase using p-nitrophenyl glycoside as substrate at 1000 uM by spectrometric method relative to control.

In assay [4] the target is T2, Tissue alpha-L-fucosidase (Bos taurus) (UniProt Q2KIM0).
T2 sequence (whole entry): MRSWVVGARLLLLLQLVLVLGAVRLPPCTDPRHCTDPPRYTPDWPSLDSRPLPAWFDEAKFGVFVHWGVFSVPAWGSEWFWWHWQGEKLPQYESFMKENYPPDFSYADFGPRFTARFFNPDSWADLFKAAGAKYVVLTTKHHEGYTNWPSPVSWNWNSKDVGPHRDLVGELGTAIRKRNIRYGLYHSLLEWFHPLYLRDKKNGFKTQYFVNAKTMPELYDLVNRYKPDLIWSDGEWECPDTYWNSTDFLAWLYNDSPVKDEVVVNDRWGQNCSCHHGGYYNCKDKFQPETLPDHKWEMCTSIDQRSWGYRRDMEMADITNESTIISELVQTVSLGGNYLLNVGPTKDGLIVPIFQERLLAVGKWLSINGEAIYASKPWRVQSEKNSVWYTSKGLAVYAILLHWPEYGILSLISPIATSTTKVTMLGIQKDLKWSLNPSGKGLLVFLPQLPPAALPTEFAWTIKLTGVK
As to the kind of experiment: Inhibition of bovine kidney alpha-L-fucosidase using p-nitrophenyl glycoside as substrate at 1000 uM by spectrometric method relative to control. Type of assay: tissue-based.

Assay [5] concerns Oryza sativa. As to the kind of experiment: Inhibition of rice alpha-glucosidase using p-nitrophenyl glycoside as substrate at 1000 uM by spectrometric method relative to control.
The target of assay [6] is Alpha-glucosidase (Saccharomyces cerevisiae S288c) (UniProt P53341+P38158+P07265). As to the kind of experiment: Inhibition of yeast alpha-glucosidase using p-nitrophenyl glycoside as substrate at 1000 uM by spectrometric method relative to control. Format: protein assay.
The species entered for assay [7] is Rattus norvegicus. As to the kind of experiment: Inhibition of rat intestinal maltase using maltose as substrate at 1000 uM at pH 6.8 by colorimetric method relative to control. Format: tissue-based. The following applies: Intestine.
In assay [8] the target is Alpha-galactosidase (Coffea arabica) (UniProt Q42656). Briefly: Inhibition of coffee bean alpha-galactosidase using p-nitrophenyl glycoside as substrate at 1000 uM by spectrometric method relative to control.
Chain of Alpha-galactosidase (Coffea arabica) (Q42656 16-378 limits assumed): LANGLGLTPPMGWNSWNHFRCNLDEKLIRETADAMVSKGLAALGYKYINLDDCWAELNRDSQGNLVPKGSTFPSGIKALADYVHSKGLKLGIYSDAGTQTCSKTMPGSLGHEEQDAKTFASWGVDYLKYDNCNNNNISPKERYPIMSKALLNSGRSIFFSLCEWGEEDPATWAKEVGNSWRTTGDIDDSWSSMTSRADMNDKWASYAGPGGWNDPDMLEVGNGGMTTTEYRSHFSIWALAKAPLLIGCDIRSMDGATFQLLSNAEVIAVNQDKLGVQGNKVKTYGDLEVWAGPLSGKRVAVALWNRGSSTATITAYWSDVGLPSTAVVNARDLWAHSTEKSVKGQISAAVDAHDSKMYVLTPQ
The species named for assay [9] is Bos taurus. As to the kind of experiment: Inhibition of bovine liver beta-glucosidase using p-nitrophenyl glycoside as substrate at 1000 uM by spectrometric method relative to control. Type of assay: tissue-based.
The species named for assay [10] is Bos taurus. Briefly: Inhibition of bovine liver beta-galactosidase using p-nitrophenyl glycoside as substrate at 1000 uM by spectrometric method relative to control. Type of assay: tissue-based.
Assay [11] has as its system Penicillium decumbens. As to the kind of experiment: Inhibition of Penicillium decumbens alpha-L-rhamnosidase using p-nitrophenyl glycoside as substrate at 1000 uM by spectrometric method relative to control.
For assay [12], the species on record is Bos taurus. Briefly: Inhibition of bovine liver beta-glucuronidase using p-nitrophenyl glycoside as substrate at 1000 uM by spectrometric method relative to control. Type of assay: tissue-based.
For assay [13], the system named is Escherichia coli. As to the kind of experiment: Inhibition of Escherichia coli beta-glucuronidase using p-nitrophenyl glycoside as substrate at 1000 uM by spectrometric method relative to control.
The species named for assay [14] is Sus scrofa. As to the kind of experiment: Inhibition of porcine kidney alpha/alpha-trehalase using p-nitrophenyl glycoside as substrate at 1000 uM by spectrometric method relative to control. Type of assay: tissue-based.
Assay [15] has as its system Prunus dulcis. As to the kind of experiment: Inhibition of almond beta-glucosidase using p-nitrophenyl glycoside as substrate at 1000 uM by spectrometric method relative to control.
Assay [16] concerns Helix pomatia. Briefly: Inhibition of snail beta-mannosidase using p-nitrophenyl glycoside as substrate at 1000 uM by spectrometric method relative to control.
The nature of assay [17]: Inhibition of rat intestinal maltase using maltose as substrate at pH 6.8 by colorimetric method. Format: tissue-based, Intestine.
Assay [18] can be described thus: Inhibition of rice alpha-glucosidase using p-nitrophenyl glycoside as substrate by spectrometric method. On the set-up: species or system Oryza sativa.

As usually defined, the pIC50 is the IC50 on a negative log10 scale, so that one unit is a factor of ten. Low values mean a high IC50, high ones a low IC50. By IC50 is commonly meant the point on the concentration scale where inhibition reaches its midpoint. A high value points to lower potency. As usually defined, the inhibition is the share of the control response that was lost under treatment. The low end stands for a response near the control, the high end for a response far below the control.

Each structure is given as a SMILES string.

In assay [1], `OC[C@@H]1[C@@H](O)[C@H](O)[C@@H]2N1C[C@H](O)C2(F)F` came in with a pIC50 of 4.409. In [2], this compound gave an IC50 of 39 µM.
In the same order, the values of `OC[C@@H]1[C@@H](O)[C@H](O)[C@@H]2N1C[C@@H](O)C2(F)F` are 4.222 and 60 µM.
Regarding `OC[C@@H]1[C@@H](O)[C@H](O)[C@H]2CC(F)(F)CN12`, the inhibition in [3] came to 0%; in assay [4], 0%; in assay [5], 15.4%; in assay [6] it was 3.6%; in [7], 7.9%; in [8], 1.6%. Besides, the inhibition came out at 12.5% in assay [9]; 22.4% in assay [10]; 3% in assay [11]; 0% in assay [12]; 0% in assay [13]; 3.2% in assay [14]. Also, the results for the inhibition in [15] and in assay [16] were 11.4% and 0%, respectively. The compound further came in with an IC50 in [1] of 27 µM. This compound returned a pIC50 in assay [1] of 4.569.
On to `OC[C@@H]1[C@@H](O)[C@H](O)[C@H]2[C@@H](F)CCN21`, for which the negative logarithm of the IC50 (pIC50) in assay [1] is recorded as 4.092. In assay [2], half-maximal inhibition (IC50) was put at 81 µM.
Consider `OC[C@@H]1[C@@H](O)[C@H](O)[C@H]2[C@@H](O)C(F)(F)CN21`, for which the inhibition was 0.8% in assay [3]; 6.4% in assay [4]; 7.7% in [5]; 5.6% in [6]; 28.4% in assay [7]; 0.2% in [8]. Also, the inhibition in [9] came to 12%; in assay [10] it was 6.2%; in assay [11], 0%; in assay [12] it was 10.1%; in assay [13], 2.6%; in assay [14], 9.2%. Further, the inhibition in assay [15] came to 3.5%; in assay [16], 0%. Also, the concentration for half-maximal inhibition (IC50) in assay [1] was 246 µM. In [1], this compound showed a pIC50 of 3.609.
In [1], `OC[C@@H]1[C@@H](O)[C@H](O)[C@H]2[C@@H](F)[C@H](O)CN21` returned a negative logarithm of the IC50 (pIC50) of 3.777. In assay [2], this compound returned an IC50 of 167 µM.
Take `OC[C@@H]1[C@@H](O)[C@H](O)[C@H]2[C@H](F)[C@@H](O)CN21`: the negative logarithm of the IC50 (pIC50) in assay [1] is listed as 5.276. In assay [2], this compound gave an IC50 of 5.3 µM.
Take `OC[C@@H]1[C@@H](O)[C@H](O)[C@H]2[C@@H](O)[C@H](F)CN21`: the inhibition worked out at 0% in [3]; 0% in assay [4]; 28.4% in assay [5]; 0% in [6]; 41.7% in assay [7]; 0% in assay [8]. Moreover, the inhibition in [9] was found to be 32.3%; in assay [10], 17.6%; in assay [11] it was 0%; in assay [12], 23.1%; in assay [13], 2.9%; in assay [14] it was 30.4%. For the same compound, the inhibition in assay [15] was found to be 8.5%; in assay [16] it was 0.8%. The same compound displayed an IC50 in assay [1] of 11 µM. The compound further gave a pIC50 in assay [1] of 4.959.
As to `OC[C@@H]1[C@@H](O)[C@H](O)[C@H]2[C@H](O)[C@@H](F)CN21`, the inhibition in assay [3] came out at 0%; in assay [4] it was 14.6%; in assay [6], 41.9%; in assay [8], 5%; in [9], 18.8%; in assay [10] it was 36.7%. Further, the inhibition in assay [11] is 14.1%; in [12], 33.2%; in assay [13], 7.5%; in assay [14] it was 34.4%; in assay [15], 21.5%; in assay [16] it was 6.2%. The figures for the IC50 in [1], in assay [17] and in assay [18] were 35 µM, 313 µM and 771 µM, respectively. Further, the negative logarithm of the IC50 (pIC50) in assay [1] came to 4.456.
As to `OC[C@@H]1[C@@H](O)[C@H](O)[C@H]2C[C@H](F)CN12`, the inhibition stood at 0% in [3]; 0% in assay [4]; 10% in [5]; 0% in [6]; 7.9% in assay [7]; 2.9% in [8]. For the same compound, the inhibition in [9] turned out to be 25.5%; in assay [10], 25.8%; in [11] it was 9.9%; in assay [12], 14.8%; in assay [13], 0%; in assay [14] it was 23%. The inhibition in assay [15] was 36.8%; in assay [16] it was 0%. This compound also registered a 50% inhibitory concentration (IC50) in [1] of 2.2 µM. In assay [1], the negative-log IC50 (pIC50) is on record as 5.658.
`OC[C@@H]1[C@@H](O)[C@H](O)[C@H]2[C@@H](O)[C@@H](O)CN21` showed a pIC50 in [1] of 4.194. For the same compound, the IC50 in [2] came to 64 µM.
Turning to `OC[C@@H]1[C@@H](O)[C@H](O)[C@H]2C[C@@H](F)CN12`, the inhibition in assay [3] stood at 2.3%; in assay [4] it was 0.9%; in assay [5] it was 17.7%; in [6], 30.1%; in [7], 30.9%; in [8], 6.7%. In addition, the inhibition in assay [9] amounted to 24.3%; in assay [10] it was 29.9%; in assay [11], 4.9%; in assay [12], 21.9%; in assay [13], 1.2%; in [14], 42.3%. The inhibition came to 17.7% in assay [15] and 4.3% in assay [16]. The compound also showed a 50% inhibitory concentration (IC50) in [1] of 633 µM. The pIC50 in assay [1] came out at 3.199.
Take `OC[C@@H]1[C@@H](O)[C@H](O)[C@H]2[C@@H](F)[C@@H](O)CN21`: in [1], the negative-log IC50 (pIC50) is recorded as 3.818. Also, the IC50 in assay [2] was 152 µM.
In the same order, the values of `OC[C@@H]1[C@@H](O)[C@H](O)[C@H]2[C@H](F)[C@H](O)CN21` are 5.347 and 4.5 µM.
Turning to `OC[C@@H]1[C@@H](O)[C@H](O)[C@H]2[C@@H](O)[C@@H](F)CN21`, the inhibition in [3] was determined as 3.3%; in assay [4], 14%; in assay [6] it was 18%; in assay [8], 0%; in assay [9], 35.9%; in assay [10], 38%. In addition, the inhibition in [11] came to 1.7%; in [12] it was 13.3%; in assay [13] it was 7%; in [14] it was 30.4%; in assay [15], 13.6%; in [16], 0%. The 50% inhibitory concentration (IC50) in assay [1] came to 248 µM; in [17], 927 µM; in assay [18], 350 µM. Moreover, in [1], the pIC50 is listed as 3.606.

Values taken from ChEMBL document CHEMBL5247629, “C-6 fluorinated casuarines as highly potent and selective amyloglucosidase inhibitors: Synthesis and structure-activity relationship study” (Eur J Med Chem, 2022).
